Source: patent US4870160A, “Polypeptides with laminin activity” (Regents of the University of Minnesota, priority 1987, dated 1989)
Peptide text beside a SMILES is read from it.

Assays:
peptide 9 = target: T1, peptide 9 (Mus musculus, UniProt P02469); experiment: Heparin/peptide interaction specificity, competition on coated peptide 9 (Example 4); assay type: binding; details: 3.1 μg per well of peptide 9 coated, FIG. 7
T1 construct: made in house; host or cells: chemical solid-phase (Merrifield) synthesis, no expression host
T1 sequence (P02469 662-681 limits assumed): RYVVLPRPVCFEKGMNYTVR
Description: (§1) To check whether charge was the main factor in the interaction between heparin and peptides 9 and 13, or whether the heparin structure was also critical to this interaction heparin along with two other sulfated glucosaminoglycans, dextran sulfate and chondroitin sulfate were used in competition experiments. A standard amount of 3.1 μg per well of peptide 9 and 12.5 ug per well of peptide 13 were coated on 96-well plates as described above. […] Wells were treated for two hours with 2 mg/ml BSA in wash buffer. Then, a final volume of 50 μls was added to each well, containing a standard amount of 3H-heparin (50,000 cpm per well) and various amounts of non-radioactiveheparin, dextran sulfate and […]. After incubating for two hours at 37° C., the wells were washed and radioactivity was counted as described above in Example 1. […] Therefore, the structure of heparin is a crucial factor for this interaction.

peptide 13 = target: T2, peptide 13 (Mus musculus, UniProt P02469); experiment: Heparin/peptide interaction specificity, competition on coated peptide 13 (Example 4); assay type: binding; details: 12.5 ug per well of peptide 13 coated, FIG. 8
T2 construct: polypeptide F13 formally represents isolated laminin residues 1171-1188; made in house; host or cells: chemical solid-phase (Merrifield) synthesis, no expression host
Description: as §1

[1] = Heparin binding to peptides coated on 96-well plastic plates (Example 2); details: 1 mg/ml to 1 μg/ml, two hours at 37° C., FIG. 5
Description: In order to test the ability of the synthesized peptides (9 and 11-18) to bind to 96-well plastic plates (in which experiments with cultured cell lines can be performed), we did an experiment similar to that described above in Example 1. Stock solutions of peptides 9 and 11-18, laminin and BSA at a maximum concentration of 1 mg/ml were prepared and serially diluted in PBS+NaN3 producing final concentration from 1 mg/ml to 1 μg/ml. Fifty μl from each concentration was coated on the 96-well plates and left to dry overnight at 28° C. Then, wells were treated for two hours with […] of 2 mg/ml BSA in 6 mM phosphate, 100 mM NaCl, 68 μM CaCl2, pH 6.8 (wash buffer) in order to minimize non-specific binding. Next 50 μls of ^3 H-heparin (10 μg/ml) was added (50,000 cpm/well) for two hours at 37° C. The wells were then washed three times with wash buffer containing 0.05% Triton X-100 and finally they were incubated for thirty minutes at 60 C with 200 μl of 0.5 N NaOH and 1% SDS. The amount of ^3 H-heparin bound at each peptide concentration was quantitated as described above in Example 1.

[2] = system: Bovine aortic endothelial cells; experiment: Aortic endothelial cell adhesion assay (Example 5); assay type: cell-based; details: 0.1; 1.0; and 10.0 μg/per well adsorbed, 120 minutes at 37° C, FIG. 9
Description: Bovine aortic endothelial cells were isolated according to the following protocol. Aortas were obtained from a local slaughterhouse, washed in cold phosphate buffered saline (PBS) (136 mM NaCl, 2.6 mM KCl, 15.2 mM Na2HP04, pH 7.2) and processed within 2 hours. Crude collagenase (CLS III, 125-145 units per mg dry weight, Cooper Biomedical) was used at 2 mg/ml in Dulbecco's modified Eagle's medium (DMEM) (GIBCO). The vessel was clamped at the distal end, filled with the collagenase-PBS solution and digestion was carried out for 10 minutes. The lumenal contents were harvested, followed by the addition of fresh collagenase for two additional 10-minute periods. The enzyme-cell suspensions were added to an equal volume of DMEM containing 10% fetal bovine serum (FBS) to inhibit the enzyme and spun in a centrifuge at 400×g for 10 minutes. The resulting cell pellet was resuspended in DMEM containing 10% FBS, 100 units/ml of penicillin G, 100 μg/ml of streptomycin and 100 μg/ml of crude fibroblast growth factor. Cells are cultured in 75 cm^2 flasks in a humidified 5% CO2 atmosphere at 37° C. Cultures were fed twice a week with the same medium and cells were used in assays when approximately 75% confluent. Cells were identified as endothelial in nature by characteristic cobblestone morphology, contact inhibition of growth upon reaching confluency, and positive immunofluorescent staining for factor VIII:RAg (Miles Laboratories) [S. Schwartz, In Vitro, 14, 966 (1978)]. Only endothelial cells, megakaryocytes and platelets are known to contain the factor VIII:RAg. This method routinely gives a high yield of endothelial cells with little contamination (less than 5%) by smooth muscle cells, pericytes or fibroblasts as judged by phase contrast microscopy as well as by immunostaining.
Adhesion was measured using 96 well microtiter plates adsorbed with three different amounts (0.1; 1.0; and 10.0 μg/per well) of peptides 9, 11-18, BSA and laminin. Cultures of cells which were 60-80% confluent were metabolically labeled for 24 hours with the addition of 3 mCi/ml of ^3 H-amino acid mixture. On the day of the assay, the cells were harvested by trypsinization, the trypsin was inhibited by the addition of serum, and the cells were washed free of this mixture and resuspended in DMEM buffered with HEPES at pH 7.2. The adhesion medium also contained 2 mg/ml BSA. The cells were adjusted to a concentration of 3-4×10^4 /ml and 100 μls of this cell suspension was added to the wells. The assay mixture was then incubated at 37° C for 120 minutes. […] The solubilized cells were then quantitated using a liquid scintillation counter. […]

| Compound | molar concentration needed for 50% inhibition of ^3 H-heparin binding, relative to heparin (peptide 9) | molar concentration needed for 50% inhibition of ^3 H-heparin binding, relative to heparin (peptide 13) | binding of ^3 H-heparin [1] | endothelial cell adhesion [2] |
| --- | --- | --- | --- | --- |
| dextran sulfate | Ten to one hundred times more molar concentration | Ten to one hundred times more molar concentration | – | – |
| laminin | – | – | bind heparin very well | – |
| dermatan sulfate | Ten to one hundred times more molar concentration | Ten to one hundred times more molar concentration | – | – |
| VEGVEGPRCDKCTRGY [Peptide F12, 16-mer, laminin B1 chain aa 1133-1148] | – | – | – | potent promoters of endothelial cell adhesion |
| CC[C@H](C)[C@H](NC(=O)[C@H](Cc1ccc(O)cc1)NC(=O)CNC(=O)[C@@H]1CCCN1C(=O)[C@H](CC(=O)O)NC(=O)[C@H](CS)NC(=O)[C@@H](N)C(C)C)C(=O)NCC(=O)N[C@@H](CO)C(=O)N[C@@H](CCCNC(=N)N)C(=O)O [Peptide F18, VCDPGYIGSR] (H-VCDPGYIGSR-OH) | – | – | – | potent promoters of endothelial cell adhesion |
